Experimental data published in patent US9598424B2 (Takeda Pharmaceutical Company Limited, priority 2014, dated 2017).

What was measured:
TBK1 = target: T1, TBK1 (Homo sapiens, UniProt Q9UHD2); assay: Inhibition of TBK1 in Cells (TLR3 driven ISRE β-lactamase reporter assay); assay type: cell-based; conditions: poly IC-LMW stimulation 16 hrs; -log(EC50), EC50 molar; read-out: Inhibition of TBK1 in cells pEC50 (EC) (converted)
T1 construct: host or cells: RA1-ISRE beta-lactamase reporter cells
T1 sequence (Q9UHD2 1-729): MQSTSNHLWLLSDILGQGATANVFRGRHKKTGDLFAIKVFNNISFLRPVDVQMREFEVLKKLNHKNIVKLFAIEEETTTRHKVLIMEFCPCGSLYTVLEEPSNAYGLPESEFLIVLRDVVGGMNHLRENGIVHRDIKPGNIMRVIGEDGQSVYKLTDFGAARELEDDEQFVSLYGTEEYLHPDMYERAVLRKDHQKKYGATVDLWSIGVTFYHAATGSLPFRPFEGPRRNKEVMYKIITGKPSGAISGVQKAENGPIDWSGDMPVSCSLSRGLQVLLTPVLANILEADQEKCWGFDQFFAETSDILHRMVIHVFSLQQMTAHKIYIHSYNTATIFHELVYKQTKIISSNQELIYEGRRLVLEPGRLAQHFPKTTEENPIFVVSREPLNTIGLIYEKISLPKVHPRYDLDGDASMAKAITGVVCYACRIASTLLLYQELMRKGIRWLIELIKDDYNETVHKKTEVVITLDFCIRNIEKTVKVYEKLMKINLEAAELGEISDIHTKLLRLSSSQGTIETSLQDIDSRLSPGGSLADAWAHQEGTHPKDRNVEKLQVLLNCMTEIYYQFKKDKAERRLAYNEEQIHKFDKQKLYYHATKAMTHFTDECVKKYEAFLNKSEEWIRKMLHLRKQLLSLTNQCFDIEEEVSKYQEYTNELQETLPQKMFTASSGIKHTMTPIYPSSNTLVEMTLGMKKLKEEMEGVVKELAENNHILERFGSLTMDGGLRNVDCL
Method: TBK1 inhibition is determined using a TLR3 driven RA1-ISRE β-lacatamase reporter assay (Life Technologies). In the assay 50,000 cells/well are plated in black clear bottom 384 well plate. Each test compound is prepared in DMSO using 2.5-fold serial dilutions for 11 data points, which are then added to the media. Cells are stimulated with 0.15 mg/ml poly IC-LMW (Invivogen) for 16 hrs. Reporter activity is detected using the LiveBLAzer-FRET B/G CCF4-AM substrate (Life Technologies) and the plate is read using the Spectramax M5 instrument. Corresponding EC50 values are calculated by non-linear curve fitting of the compound concentrations and percent of inhibition to the standard EC50 equation and reported as pEC50, i.e., −log(EC50), where EC50 is the molar concentration.

Full length human TBK1 = target: T2, Full length human TBK1 (Homo sapiens, UniProt Q9UHD2); assay: Inhibition of TBK1 Enzyme (Caliper microfluidic assay); assay type: biochemical; conditions: 25 μM ATP, 60 min at RT; -log(IC50), IC50 molar; read-out: TBK1 Inhibition (pIC50) (converted)
T2 construct: Full length human TBK1 with an N-terminal His-tag; His-tag (N); made in house; host or cells: Sf9 insect cells (baculovirus, pFastBac1)
T2 sequence (Q9UHD2 1-729): T1 sequence (Q9UHD2 1-729)
Method: Full length human TBK1 with an N-terminal His-tag was cloned into the pFastBacl vector and was transfected into Sf9 cells. 72 hours later the virus was harvested and amplified through two additional rounds of infections. Then 400 ml of the resulting virus stock was used to infect 10L of Sf9 cells at a density of 2×10^6 cells/ml. Cell pellets were harvested 48 hours post infection and were lysed by freeze-thaw, homogenization and sonication in binding buffer (25 mM Tris pH7.6, 1 M NaCl, 10 mM imidazole, 0.5 mM TCEP) plus 0.1% Triton X-100 and complete protease inhibitor cocktail. The lysate was spun and the supernatant was purified with a HisTrap FF crude and a Superdex 200 pg column.
TBK1 inhibition is determined using a 384 well plate format in buffer containing 20 mM Hepes, pH 7.4, 10 mM MgCl2, 1 mM EDTA, 0.01% Brij-L23, 1 mM DTT. Each test compound is prepared in DMSO using 2.5-fold serial dilutions for 11 data points, which are added to the buffer so that each dilution contains 1% DMSO. To each well is added 2 μL of 1 μm 5FAM-DRHDSGLDSMKDE-NH2 (in buffer), 2 μL of diluted test compound (1% DMSO in buffer), and 5 μL of 3 nM TBK1 and 25 μM ATP (in buffer). The reaction mixture is incubated at RT for 60 min, and quenched by adding 20 mM Hepes, pH 7.4, 10 mM MgCl2, 1 mM EDTA, 0.01% Brij-L23, 1 mM DTT+25 mM EDTA. To quantify the fluorescent-labeled substrate and product following reaction, the test plate is loaded on a Caliper LC-3000, which measures percent of conversion by microfluidic-based separation. Corresponding IC50 values are calculated by non-linear curve fitting of the compound concentrations and percent of inhibition to the standard IC50 equation and reported as pIC50, i.e., −log(IC50), where IC50 is the molar concentration.

Row | SMILES | EC50 (TBK1) [nM] | IC50 (Full length human TBK1) [nM]
1 | O=C(NC1CCCOC1)c1nc(-c2ccc3nc(NC(=O)C4CC4)cn3c2)cs1 (stereo in doubt) [Example 88, (S)-4-(2-(cyclopropanecarboxamido)imidazo[1,2-a]pyridin-6-yl)-N-(tetrahydro-2H-pyran-3-yl)thiazole-2-carboxamide] | 1550 | 63.1
2 | O=C(NCC(F)F)c1nc(-c2cn3cc(NC(=O)C4CC4)nc3cn2)cs1 [Example 5, 4-(2-(cyclopropanecarboxamido)imidazo[1,2-a]pyrazin-6-yl)-N-(2,2-difluoroethyl)thiazole-2-carboxamide] | 794 | 10
3 | O=C(NCC(F)(F)F)c1nc(-c2cn3cc(NC(=O)C4CC4)nc3cn2)cs1 [Example 6, 4-(2-(cyclopropanecarboxamido)imidazo[1,2-a]pyrazin-6-yl)-N-(2,2,2-trifluoroethyl)thiazole-2-carboxamide] | 355 | 7.94
4 | O=C(NCC(F)F)c1nc(-c2ccc3nc(NC(=O)C4CC4)cn3n2)cs1 [Example 8, 4-(2-(cyclopropanecarboxamido)imidazo[1,2-b]pyridazin-6-yl)-N-(2,2-difluoroethyl)thiazole-2-carboxamide] | 9120 | 200
5 | C[C@@H](NC(=O)c1nc(-c2ccc3nc(NC(=O)C4CC4)cn3c2)c[nH]1)C(F)(F)F [Example 9, 4-{2-cyclopropaneamidoimidazo[1,2-a]pyridin-6-yl}-N-[(2R)-1,1,1-trifluoropropan-2-yl]-1H-imidazole-2-carboxamide] | 229 | 10
6 | C[C@H](NC(=O)c1nc(-c2ccc3nc(NC(=O)C4CC4)cn3c2)c[nH]1)C(F)(F)F [Example 10, 4-{2-cyclopropaneamidoimidazo[1,2-a]pyridin-6-yl}-N-[(2S)-1,1,1-trifluoropropan-2-yl]-1H-imidazole-2-carboxamide] | > 50100 | 316
7 | CC(F)(F)CNC(=O)c1nc(-c2ccc3nc(NC(=O)C4CC4)cn3c2)c[nH]1 [Example 11, 4-{2-cyclopropaneamidoimidazo[1,2-a]pyridin-6-yl}-N-(2,2-difluoropropyl)-1H-imidazole-2-carboxamide] | 813 | 63.1
8 | O=C(NCC(F)F)c1nc(-c2ccc3nc(NC(=O)C4CC4)cn3c2)c[nH]1 [Example 12, 4-{2-cyclopropaneamidoimidazo[1,2-a]pyridin-6-yl}-N-(2,2-difluoroethyl)-1H-imidazole-2-carboxamide] | 955 | 20
9 | O=C(CF)Nc1cn2cc(-c3csc(C(=O)NCC(F)(F)F)c3)ccc2n1 [Example 16, 4-(2-(2-fluoroacetamido)imidazo[1,2-a]pyridin-6-yl)-N-(2,2,2-trifluoroethyl)thiophene-2-carboxamide] | 1050 | 79.4
10 | N#CCC(=O)Nc1cn2cc(-c3csc(C(=O)NCC(F)(F)F)c3)ccc2n1 [Example 17, 4-(2-(2-cyanoacetamido)imidazo[1,2-a]pyridin-6-yl)-N-(2,2,2-trifluoroethyl)thiophene-2-carboxamide] | 2950 | 79.4
11 | O=C(NCC(F)F)c1cc(-c2ccc3nc(NC(=O)C4CC4)cn3n2)cs1 [Example 18, 4-(2-(cyclopropanecarboxamido)imidazo[1,2-b]pyridazin-6-yl)-N-(2,2-difluoroethyl)thiophene-2-carboxamide] | 251 | 10
12 | O=C(NCC(F)F)c1cc(-c2cn3cc(NC(=O)C4CC4)nc3cn2)cs1 [Example 19, 4-(2-(cyclopropanecarboxamido)imidazo[1,2-a]pyrazin-6-yl)-N-(2,2-difluoroethyl)thiophene-2-carboxamide] | 407 | 5.01
13 | O=C(NCC(F)(F)F)c1nc(-c2ccc3nc(NC(=O)C4CC4)cn3n2)cs1 [Example 21, 4-(2-(cyclopropanecarboxamido)imidazo[1,2-b]pyridazin-6-yl)-N-(2,2,2-trifluoroethyl)thiazole-2-carboxamide] | 3390 | 50.1
14 | Cc1sc(C(=O)NCC(F)(F)F)cc1-c1ccc2nc(NC(=O)C3CC3)cn2n1 [Example 23, 4-(2-(cyclopropanecarboxamido)imidazo[1,2-b]pyridazin-6-yl)-5-methyl-N-(2,2,2-trifluoroethyl)thiophene-2-carboxamide] | 5370 | 79.4
15 | CC(NC(=O)c1nc(-c2ccc3nc(NC(=O)C4CC4)cn3c2)c[nH]1)C(F)(F)F (centres unmarked) [Example 24, 4-(2-(cyclopropanecarboxamido)imidazo[1,2-a]pyridin-6-yl)-N-(1,1,1-trifluoropropan-2-yl)-1H-imidazole-2-carboxamide] | 468 | 25.1
16 | O=C(NCC(F)(F)F)c1cc(-c2ccc3nc(NC(=O)C4CC4)cn3c2)sn1 [Example 26, 5-(2-(cyclopropanecarboxamido)imidazo[1,2-a]pyridin-6-yl)-N-(2,2,2-trifluoroethyl)isothiazole-3-carboxamide] | 759 | 79.4
17 | O=C(NCC(F)F)c1cc(-c2ccc3nc(NC(=O)C4CC4)cn3c2)n[nH]1 [Example 27, 5-(2-(cyclopropanecarboxamido)imidazo[1,2-a]pyridin-6-yl)-N-(2,2-difluoroethyl)-1H-pyrazole-3-carboxamide] | 3720 | 31.6
18 | CN(CC(F)(F)F)C(=O)c1cc(-c2ccc3nc(NC(=O)C4CC4)cn3c2)cs1 [Example 28, 4-(2-(cyclopropanecarboxamido)imidazo[1,2-a]pyridin-6-yl)-N-methyl-N-(2,2,2-trifluoroethyl)thiophene-2-carboxamide] | 676 | 12.6
19 | Cc1sc(C(=O)NCC(F)(F)F)cc1-c1ccc2nc(NC(=O)C3CC3)cn2c1 [Example 29, 4-(2-(cyclopropanecarboxamido)imidazo[1,2-a]pyridin-6-yl)-5-methyl-N-(2,2,2-trifluoroethyl)thiophene-2-carboxamide] | 6760 | 39.8
20 | Cc1sc(C(=O)NCC(F)(F)F)cc1-c1cn2cc(NC(=O)C3CC3)nc2cn1 [Example 30, 4-(2-(cyclopropanecarboxamido)imidazo[1,2-a]pyrazin-6-yl)-5-methyl-N-(2,2,2-trifluoroethyl)thiophene-2-carboxamide] | 6460 | 25.1
21 | O=C(NCC(F)(F)F)c1cc(-c2ccc3nc(NC(=O)C4CC4)cn3c2)cs1 [Example 32, 4-(2-(cyclopropanecarboxamido)imidazo[1,2-a]pyridin-6-yl)-N-(2,2,2-trifluoroethyl)thiophene-2-carboxamide] | 120 | 5.01
22 | O=C(NCC(F)(F)F)c1cc(-c2cn3cc(NC(=O)C4CC4)nc3cn2)cs1 [Example 33, 4-(2-(cyclopropanecarboxamido)imidazo[1,2-a]pyrazin-6-yl)-N-(2,2,2-trifluoroethyl)thiophene-2-carboxamide] | 269 | 5.01
